Data on twelve substances can be found in patent publication US8598120B2 (Amylin Pharmaceuticals, LLC, priority 2004, dated 2013).

Square brackets hold non-standard residues; d marks the D form. * marks the point of attachment. Pentanoyl(4-Me) = CC(C)CCC(=O)*; Aib = CC(C)(N)C(=O)O; For = O=C*

This test is described as follows: Food intake assay in overnight fasted mice. The conditions noted are these: 25 nmol/kg intraperitoneal. Type of test: in vivo. The protocol:
Female NIH/Swiss mice (8-14 weeks old) were group housed with a 12:12 hour light:dark cycle. Water and a standard pelleted mouse chow diet are available ad libitum, except as noted. Animals are fasted starting at approximately 1500 hrs, 1 day prior to experiment.
The effects of treatment on food intake are expressed as % change relative to control.

Consider “ACDTATCVLGRLSQELHRLQTYPRTNTGSNTY [Compound 92]”, for which the “cumulative food intake compared to vehicle, 30 min” value is −31%; the “cumulative food intake compared to vehicle, 60 min” value is listed as −29%; the “cumulative food intake compared to vehicle, 120 min” value is recorded as −30%; the “cumulative food intake compared to vehicle, 180 min” value was −27%.
With “Ac-ACNTATCVLGRLSQELHK(PEG5000)LQTYPRTNTGSNTY [Compound 47]”, the “cumulative food intake compared to vehicle, 30 min” value is −5%; the “cumulative food intake compared to vehicle, 60 min” value is given as −13%; the “cumulative food intake compared to vehicle, 120 min” value is listed as −27%.
With “CANLSTCVLGRLSQELHRLQTYPRTNTGSNTY [Compound 19]”, the “cumulative food intake compared to vehicle, 30 min” value was −25%; the “cumulative food intake compared to vehicle, 60 min” value was −25%; the “cumulative food intake compared to vehicle, 120 min” value is −35%; the “cumulative food intake compared to vehicle, 180 min” value is −31%.
Turning to “CNTATCVLGRLADFLHRLQTYPRTNTGSNTY [Compound 110]”, the “cumulative food intake compared to vehicle, 30 min” value is listed as −80%; the “cumulative food intake compared to vehicle, 60 min” value is reported as −72%; the “cumulative food intake compared to vehicle, 120 min” value is recorded as −59%.
The corresponding values for “CSALSTCVLGRLSQELHRLQTYPRTNTGSNTY [Compound 26]” are −29%, −36% and −47%.
Consider “CSNASTCVLGRLSQELHRLQTYPRTNTGSNTY [Compound 21]”, for which the “cumulative food intake compared to vehicle, 30 min” value turned out to be 9%; the “cumulative food intake compared to vehicle, 60 min” value is on record as −5%; the “cumulative food intake compared to vehicle, 120 min” value is listed as −18%; the “cumulative food intake compared to vehicle, 180 min” value is −18%.
For “CSNLATCVLGRLSQELHRLQTYPRTNTGSNTY [Compound 22]”, the “cumulative food intake compared to vehicle, 30 min” value was −11%; the “cumulative food intake compared to vehicle, 60 min” value is −20%; the “cumulative food intake compared to vehicle, 120 min” value is −31%; the “cumulative food intake compared to vehicle, 180 min” value is −30%.
Take “CSNLSACVLGRLSQELHRLQTYPRTNTGSNTY [Compound 23]”: the “cumulative food intake compared to vehicle, 30 min” value turned out to be 8%; the “cumulative food intake compared to vehicle, 60 min” value was found to be 0%; the “cumulative food intake compared to vehicle, 120 min” value was −19%; the “cumulative food intake compared to vehicle, 180 min” value is on record as −12%.
Regarding “DSNLSTKVLGRLSQELHRLQTYPRTNTGSNTY [Compound 68]”, the “cumulative food intake compared to vehicle, 30 min” value is −10%; the “cumulative food intake compared to vehicle, 60 min” value is on record as −13%; the “cumulative food intake compared to vehicle, 120 min” value is −21%.
In the case of “Isocaproyl-STAVL(Aib)RLSQELRLQTYPRTNTGSGTP ({Pentanoyl(4-Me)}-STAVL[Aib]RLSQELRLQTYPRTNTGSGTP-NH2; SMILES CC(C)CCC(=O)N[C@@H](CO)C(=O)N[C@H](C(=O)N[C@@H](C)C(=O)N[C@H](C(=O)N[C@@H](CC(C)C)C(=O)NC(C)(C)C(=O)N[C@@H](CCCNC(=N)N)C(=O)N[C@@H](CC(C)C)C(=O)N[C@@H](CO)C(=O)N[C@@H](CCC(N)=O)C(=O)N[C@@H](CCC(=O)O)C(=O)N[C@@H](CC(C)C)C(=O)N[C@@H](CCCNC(=N)N)C(=O)N[C@@H](CC(C)C)C(=O)N[C@@H](CCC(N)=O)C(=O)N[C@H](C(=O)N[C@@H](Cc1ccc(O)cc1)C(=O)N1CCC[C@H]1C(=O)N[C@@H](CCCNC(=N)N)C(=O)N[C@H](C(=O)N[C@@H](CC(N)=O)C(=O)N[C@H](C(=O)NCC(=O)N[C@@H](CO)C(=O)NCC(=O)N[C@H](C(=O)N1CCC[C@H]1C(N)=O)[C@@H](C)O)[C@@H](C)O)[C@@H](C)O)[C@@H](C)O)C(C)C)[C@@H](C)O) [Compound 29]”, the “cumulative food intake compared to vehicle, 30 min” value was 4%; the “cumulative food intake compared to vehicle, 60 min” value is −1%; the “cumulative food intake compared to vehicle, 120 min” value was −25%.
As for “Isocaproyl-STAVL(Aib)[K(For)]LSQEL(Aib)[K(For)]LQTYPRTNTGSNTY ({Pentanoyl(4-Me)}-STAVL[Aib]K(For)LSQEL[Aib]K(For)LQTYPRTNTGSNTY-NH2; SMILES CC(C)CCC(=O)N[C@@H](CO)C(=O)N[C@H](C(=O)N[C@@H](C)C(=O)N[C@H](C(=O)N[C@@H](CC(C)C)C(=O)NC(C)(C)C(=O)N[C@@H](CCCCNC=O)C(=O)N[C@@H](CC(C)C)C(=O)N[C@@H](CO)C(=O)N[C@@H](CCC(N)=O)C(=O)N[C@@H](CCC(=O)O)C(=O)N[C@@H](CC(C)C)C(=O)NC(C)(C)C(=O)N[C@@H](CCCCNC=O)C(=O)N[C@@H](CC(C)C)C(=O)N[C@@H](CCC(N)=O)C(=O)N[C@H](C(=O)N[C@@H](Cc1ccc(O)cc1)C(=O)N1CCC[C@H]1C(=O)N[C@@H](CCCNC(=N)N)C(=O)N[C@H](C(=O)N[C@@H](CC(N)=O)C(=O)N[C@H](C(=O)NCC(=O)N[C@@H](CO)C(=O)N[C@@H](CC(N)=O)C(=O)N[C@H](C(=O)N[C@@H](Cc1ccc(O)cc1)C(N)=O)[C@@H](C)O)[C@@H](C)O)[C@@H](C)O)[C@@H](C)O)C(C)C)[C@@H](C)O) [Compound 31]”, the “cumulative food intake compared to vehicle, 30 min” value was −11%; the “cumulative food intake compared to vehicle, 60 min” value is recorded as −18%; the “cumulative food intake compared to vehicle, 120 min” value is on record as −23%.
“Isocaproyl-STAVL(Aib)[K(For)]LSQEL(Aib)[K(For)]LQTYPRTNVGSNTY ({Pentanoyl(4-Me)}-STAVL[Aib]K(For)LSQEL[Aib]K(For)LQTYPRTNVGSNTY-NH2; SMILES CC(C)CCC(=O)N[C@@H](CO)C(=O)N[C@H](C(=O)N[C@@H](C)C(=O)N[C@H](C(=O)N[C@@H](CC(C)C)C(=O)NC(C)(C)C(=O)N[C@@H](CCCCNC=O)C(=O)N[C@@H](CC(C)C)C(=O)N[C@@H](CO)C(=O)N[C@@H](CCC(N)=O)C(=O)N[C@@H](CCC(=O)O)C(=O)N[C@@H](CC(C)C)C(=O)NC(C)(C)C(=O)N[C@@H](CCCCNC=O)C(=O)N[C@@H](CC(C)C)C(=O)N[C@@H](CCC(N)=O)C(=O)N[C@H](C(=O)N[C@@H](Cc1ccc(O)cc1)C(=O)N1CCC[C@H]1C(=O)N[C@@H](CCCNC(=N)N)C(=O)N[C@H](C(=O)N[C@@H](CC(N)=O)C(=O)N[C@H](C(=O)NCC(=O)N[C@@H](CO)C(=O)N[C@@H](CC(N)=O)C(=O)N[C@H](C(=O)N[C@@H](Cc1ccc(O)cc1)C(N)=O)[C@@H](C)O)C(C)C)[C@@H](C)O)[C@@H](C)O)C(C)C)[C@@H](C)O) [Compound 32]”: the “cumulative food intake compared to vehicle, 30 min” value is −15%; the “cumulative food intake compared to vehicle, 60 min” value was −21%; the “cumulative food intake compared to vehicle, 120 min” value is −31%.
